Like-named read-outs stand apart in the source and are kept apart here.

Assay type in all cases: physicochemical
Series [1] can be described thus: Solubility of iclaprim methanesulfonic acid salt in aqueous/organic solutions, HPLC of supernatant. The following applies: for solubility at 24 h: thermodynamic from solid. As to the method: A fixed amount of iclaprim mesylate was suspended in the different aqueous/organic solutions. The suspension was stirred at room temperature for 24 hours. The supernatant of the solutions were analyzed by HPLC to determine the amount of iclaprim in the solution.

Series [2] is described as follows: Stability of iclaprim under simulated sterilization conditions at pH<3.5, HPLC. The following applies: 30% propylene glycol or 10% glycofurol in water. As to the method:
Further stability tests of the above standard formulations were performed, wherein the pH was adjusted with citric acid below 3.5 under simulated sterilization conditions, such as 100° C. for 2 h. Vials of 5-[(2RS)-2-cyclopropyl-7,8-dimethoxy-2H-1-benzopyran-5-ylmethyl]-pyrimidine-2,4-diamine methanesulfonic acid salt were prepared in 30% propylene glycol or 10% glycofurol in water. The pH of the so obtained solution was adjusted to pH 3 with 1M citric acid or to pH 1 with 1N hydrochloric acid, and the vials were heated in order to simulate a sterilization process. The analysis of the solutions after completion of the heating step was performed by means of visual examinations and HPLC measurements.

Series [3] is described as follows: Stress heating of standard formulation (simulated long term storage), HPLC. The following applies: 20 mg/mL in 30% propylene glycol in water, normal atmosphere. As to the method:
Within the scope of the present invention various standard aqueous formulations of 5-[(2RS)-2-cyclopropyl-7,8-dimethoxy-2H-1-benzopyran-5-ylmethyl]-pyrimidine-2,4-diamine and its acid addition salts were tested for long term stability. For example, vials of 5-[(2RS)-2-cyclopropyl-7,8-dimethoxy-2H-1-benzopyran-5-ylmethyl]-pyrimidine-2,4-diamine methanesulfonic acid salt were prepared in 30% propylene glycol in water at a concentration of iclaprim of 20 mg/mL. In order to examine the stability of the above standard formulations a model system was used to simulate long term storage conditions. In this model system, the solutions to be tested are stress heated at 40° C. and 70° C. for at least 12 days. The analysis of the solutions after completion of the heating step were made by means of methods well known to those skilled in the art such as, for example, HPLC measurements. Vials of 5-[(2RS)-2-cyclopropyl-7,8-dimethoxy-2H-1-benzopyran-5-ylmethyl]-pyrimidine-2,4-diamine methanesulfonic acid salt (20 mg/mL) were prepared in 30% propylene glycol in Millipore water under normal atmosphere. In order to examine the stability of the above formulation a model experiment was developed wherein the solutions to be tested are stress heated. It is well know in the art that by heating a test sample at a temperature higher than room temperature (about 20° C.) such as between 40° C. and 70° C. for a prolonged period of time, long storage conditions can be simulated. The analysis of the solutions after completion of the heating step was made by means of visual examinations and HPLC measurements.

For the compound `COc1cc(Cc2cnc(N)nc2N)c2c(c1OC)OC(C1CC1)C=C2.CS(=O)(=O)O` (racemic) [iclaprim methanesulfonic acid salt, 5-[(2RS)-2-cyclopropyl-7,8-dimethoxy-2H-1-benzopyran-5-ylmethyl]-pyrimidine-2,4-diamine methanesulfonic acid salt], the solubility at 24 h in series [1] (10% propylene glycol in saline 0.9%, aqueous with cosolvent or surfactant or cyclodextrin, 10% (saline 0.9%) propylene glycol, room temperature, 24 hours, read-out: Solubility calculated form HPLC measurements) was 7500 µg/mL; in series [1] (aqueous with cosolvent or surfactant or cyclodextrin, 10% aqueous propylene glycol, room temperature, 24 hours, read-out: Solubility calculated form HPLC measurements), 27800 µg/mL; in series [1] (saline or isotonic, Saline 0.9%, room temperature, 24 hours, read-out: Solubility calculated form HPLC measurements), 1200 µg/mL; in series [1] (saline solution with reduced propylene glycol, aqueous with cosolvent or surfactant or cyclodextrin, in saline solution, reduced propylene glycol, pH above 4.0, read-out: maximal solubility achieved), 7500 µg/mL; in series [1] (water, room temperature, 24 hours, read-out: Solubility calculated form HPLC measurements), 18100 µg/mL. The “concentration at which precipitation was observed” value in series [1] (saline solutions, e.g. 10% propylene glycol saline solution) is “above 7.5 mg/mL”.

For the compound `COc1cc(Cc2cnc(N)nc2N)c2c(c1OC)OC(C1CC1)C=C2` (racemic) [iclaprim, 5-[(2RS)-2-cyclopropyl-7,8-dimethoxy-2H-1-benzopyran-5-ylmethyl]-pyrimidine-2,4-diamine], the “% iclaprim” value was 99.0% in series [2] (1 h, 37° C., pH 1); 60.0% in series [2] (2 h, 100° C., pH 1); 86.5% in series [2] (2 h, 100° C., pH 3); 96.3% in series [2] (3 h, 37° C., pH 1); 99.0% in series [2] (3 h, 37° C., pH 3); 99.1% in series [2] (fresh solution, 0 min, about 20° C., pH 4.5 (reference, no pH adjustment)). The “% iclaprim” value in series [3] (12 days, 40° C.) is 97.0%; in series [3] (12 days, 70° C.), 90.0%; in series [3] (45 days, about 20° C.), 97.5%; in series [3] (fresh solution, 0 min, about 20° C.), 99.1%.

Source of the values: patent US7947293B2, “Aqueous pharmaceutical formulation” (Arpida AG, priority 2008, dated 2011).
